In patent publication US12281079B2, “Quinoline derivatives, processes for their preparation and uses thereof for the treatment of cancer” (Lead Discovery Center GmbH, priority 2019, dated 2025):
Where a name gives a salt, the structure may show the parent alone.

How the values were obtained:
[1] = molecular target: mitochondrial RNA polymerase (POLRMT) (Mus musculus, UniProt Q8BKF1); assay: Homogeneous TR-FRET assay for mitochondrial transcription activity; assay type: biochemical; settings: homogeneous TR-FRET assay according to Example 4
Sequence of mitochondrial RNA polymerase (POLRMT) (Q8BKF1 42-1207): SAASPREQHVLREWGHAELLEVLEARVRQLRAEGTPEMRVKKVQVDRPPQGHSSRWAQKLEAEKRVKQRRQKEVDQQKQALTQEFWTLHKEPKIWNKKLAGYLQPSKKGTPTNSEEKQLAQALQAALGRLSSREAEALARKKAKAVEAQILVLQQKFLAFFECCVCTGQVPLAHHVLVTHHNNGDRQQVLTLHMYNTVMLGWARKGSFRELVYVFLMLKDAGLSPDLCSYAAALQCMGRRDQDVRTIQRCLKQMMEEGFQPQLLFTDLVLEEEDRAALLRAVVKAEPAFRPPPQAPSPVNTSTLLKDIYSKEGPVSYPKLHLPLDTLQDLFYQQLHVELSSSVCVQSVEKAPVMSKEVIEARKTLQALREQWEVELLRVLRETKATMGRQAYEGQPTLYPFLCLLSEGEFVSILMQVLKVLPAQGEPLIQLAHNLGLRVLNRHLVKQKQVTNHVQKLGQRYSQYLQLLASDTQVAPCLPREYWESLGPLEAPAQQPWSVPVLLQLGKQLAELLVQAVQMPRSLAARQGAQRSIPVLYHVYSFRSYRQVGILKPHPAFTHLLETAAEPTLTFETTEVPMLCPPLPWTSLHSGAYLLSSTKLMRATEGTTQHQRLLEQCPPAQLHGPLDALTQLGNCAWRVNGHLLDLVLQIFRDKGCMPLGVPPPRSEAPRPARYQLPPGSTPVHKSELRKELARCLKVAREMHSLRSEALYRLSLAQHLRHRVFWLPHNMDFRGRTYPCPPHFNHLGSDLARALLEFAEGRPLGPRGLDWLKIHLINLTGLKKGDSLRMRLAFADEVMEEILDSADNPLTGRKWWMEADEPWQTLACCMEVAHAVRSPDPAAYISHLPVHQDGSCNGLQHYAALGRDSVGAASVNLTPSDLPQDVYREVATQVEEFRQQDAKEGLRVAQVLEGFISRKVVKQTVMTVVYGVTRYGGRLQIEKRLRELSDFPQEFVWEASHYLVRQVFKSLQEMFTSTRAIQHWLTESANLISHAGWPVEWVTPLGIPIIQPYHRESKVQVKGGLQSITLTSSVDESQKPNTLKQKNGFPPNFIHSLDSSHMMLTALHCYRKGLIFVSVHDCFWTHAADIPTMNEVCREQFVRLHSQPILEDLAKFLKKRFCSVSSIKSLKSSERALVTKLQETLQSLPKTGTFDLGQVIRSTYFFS
How it was run: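 Read-out is TR-FRET (ex 340, em 665 nm) from two adjacent labelled DNA probes annealing to the 407 bp transcript after EDTA/700 mM NaCl stop. Reaction: murine POLRMT, TFAM, TFB2M and LSP plasmid template, compound 10 μM or serial dilution, 10 min rt preincubation, 500 μM each nucleotide, 2 h rt.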

[2] = tested on: mitochondrial transcription (7S RNA) in HeLa cells; assay: Quantitative real time-PCR assay of inhibition of mitochondrial transcription (7S RNA) in HeLa cells; assay type: cell-based; settings: Homo sapiens, 4 h compound incubation, according to Example 5, read-out: cellular qPCR assay
How it was run: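 HeLa cells were exposed to compound dilution series or DMSO for 4 h, then RNA was extracted, normalized and reverse-transcribed. TaqMan qRT-PCR measured short-lived 7S RNA, with POLRMT as nuclear-transcription readout and TBP as housekeeping gene. Biological triplicates were analyzed by ΔΔCt and reported as Rq % (2−ΔΔCt).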

| SMILES | IC50 [1] | IC50 [2] |
| --- | --- | --- |
| C[C@@H](Oc1ccc2c(-c3ccc(F)cc3Cl)ccnc2c1)C(=O)N1CCCC2(CC2C(=O)O)C1 (stereo partly drawn) [Compound 193, 5-[rac-(2R)-2-[[4-(2-chloro-4-fluoro-phenyl)-7-quinolyl]oxy]propanoyl]-5-azaspiro[2.5]octane-2-carboxylic acid] | 0.02 to 0.1 µM | 0.01 to 0.05 µM |
| CC(C)NC(=O)[C@@H](C)Oc1ccc2c(-c3ccc(F)cc3Cl)ccnc2c1 [Compound 61, (2R)-2-[[4-(2-chloro-4-fluoro-phenyl)-7-quinolyl]oxy]-N-isopropyl-propanamide] | 0.1 to 1 µM | 0.05 to 0.5 µM |
| C[C@@H](Oc1ccc2c(-c3c(Cl)cc(F)cc3Cl)ccnc2c1)C(=O)N1CCC[C@](C)(C(=O)O)C1 [Compound 173, (3S)-1-[(2R)-2-[[4-(2,6-dichloro-4-fluoro-phenyl)-7-quinolyl]oxy]propanoyl]-3-methyl-piperidine-3-carboxylic acid] | < 0.02 µM | < 0.01 µM |
| Cc1cccc(C)c1-c1ccnc2cc(O[C@H](C)C(=O)N3CCCC(S(N)(=O)=O)C3)ccc12 (mixture of isomers) [Compound 119, 1-[rac-(2R)-2-[[4-(2,6-dimethylphenyl)-7-quinolyl]oxy]propanoyl]piperidine-3-sulfonamide] | < 0.02 µM | < 0.01 µM |
| C[C@@H](Oc1ccc2c(-c3ccccc3Cl)ccnc2c1)C(=O)N1CCC(CC(=O)O)CC1 [Compound 112, 2-[1-[(2R)-2-[[4-(2-chlorophenyl)-7-quinolyl]oxy]propanoyl]-4-piperidyl]acetic acid] | 0.02 to 0.1 µM | 0.01 to 0.05 µM |
| C[C@@H](Oc1ccc2c(-c3ccccc3Cl)ccnc2c1)C(=O)OC(C)(C)C [Compound 29, tert-butyl (2R)-2-[[4-(2-chlorophenyl)-7-quinolyl]oxy]propanoate] | 0.1 to 1 µM | < 0.01 µM |
| Cc1ccccc1-c1ccnc2cc(O[C@H](C)C(=O)N3CCC[C@H](CC(=O)O)C3)ccc12 [Compound 13, 2-[(3R)-1-[(2R)-2-[[4-(o-tolyl)-7-quinolyl]oxy]propanoyl]-3-piperidyl]acetic acid] | 0.02 to 0.1 µM | 0.01 to 0.05 µM |
| CCOC(=O)[C@H]1CCCN(C(=O)[C@@H](C)Oc2ccc3c(-c4c(C)cccc4C)ccnc3c2)C1 [Compound 4, ethyl (3S)-1-[(2R)-2[[4-(2,6-dimethylphenyl)-7-quinolyl]oxy]propanoyl]piperidine-3-carboxylate] | < 0.02 µM | < 0.01 µM |
| Cc1cc(F)cc(C)c1-c1ccnc2cc(O[C@H](C)C(=O)N3CCCC[C@@H]3C)ccc12 [Compound 176, (2R)-2-[[4-(4-fluoro-2,6-dimethyl-phenyl)-7-quinolyl]oxy]-1-[(2S)-2-methyl-1-piperidyl]propan-1-one] | < 0.02 µM | 0.01 to 0.05 µM |
| C[C@@H](Oc1ccc2c(-c3ccccc3)ccnc2c1)C(=O)N1CCC[C@H](C(=O)O)C1 [Compound 66, (3S)-1-[(2R)-2-[(4-phenyl-7-quinolyl)oxy]propanoyl]piperidine-3-carboxylic acid] | 0.1 to 1 µM | 0.01 to 0.05 µM |
| C[C@@H](Oc1ccc2c(-c3ccccc3Cl)ccnc2c1)C(=O)N1CCC[C@H](CC(=O)O)C1 [Compound 16, 2-[(3R)-1-[(2R)-2-[[4-(2-chlorophenyl)-7-quinolyl]oxy]propanoyl]-3-piperidyl]acetic acid] | 0.02 to 0.1 µM | 0.05 to 0.5 µM |
| Cc1cc(F)cc(C)c1-c1ccnc2cc(O[C@H](C)C(=O)N3CCOCC3)ccc12 [Compound 178, (2R)-2-[[4-(4-fluoro-2,6-dimethyl-phenyl)-7-quinolyl]oxy]-1-morpholino-propan-1-one] | < 0.02 µM | 0.01 to 0.05 µM |
| Cc1cc(-c2c(C)cccc2C)c2ccc(O[C@H](C)C(=O)N3CCC[C@@H](S(N)(=O)=O)C3)cc2n1 [Compound 114, (3R)-1-[(2R)-2-[[4-(2,6-dimethylphenyl)-2-methyl-7-quinolyl]oxy]propanoyl]piperidine-3-sulfonamide] | 0.1 to 1 µM | 0.01 to 0.05 µM |

Other lines, results leading:

| IC50 [1] | IC50 [2] | SMILES |
| --- | --- | --- |
| < 0.02 µM | < 0.01 µM | Cc1cc(F)cc(C)c1-c1ccnc2cc(O[C@H](C)C(=O)N3CCCC(C4(C(=O)O)CC4)C3)ccc12 (mixture of isomers) [Compound 182, 1-[1-[rac-(2R)-2-[[4-(4-fluoro-2,6-dimethyl-phenyl)-7-quinolyl]oxy]propanoyl]-3-piperidyl]cyclopropanecarboxylic acid] |
| 0.1 to 1 µM | 0.01 to 0.05 µM | C[C@@H](Oc1ccc2c(-c3c(Cl)cc(F)cc3Cl)ccnc2c1)C(=O)N1CCOCC1 [Compound 201, (2R)-2-[[4-(2,6-dichloro-4-fluoro-phenyl)-7-quinolyl]oxy]-1-morpholino-propan-1-one] |
| < 0.02 µM | < 0.01 µM | CC(=O)N(O)[C@H]1CCCN(C(=O)[C@@H](C)Oc2ccc3c(-c4c(C)cc(F)cc4C)ccnc3c2)C1 [Compound 185, N-[(3S)-1-[(2R)-2-[[4-(4-fluoro-2,6-dimethyl-phenyl)-7-quinolyl]oxy]propanoyl]-3-piperidyl]-N-hydroxy-acetamide] |
| 0.02 to 0.1 µM | 0.01 to 0.05 µM | C[C@@H](Oc1ccc2c(-c3c(Cl)cc(F)cc3Cl)ccnc2c1)C(=O)N1CCCC(C(C)(C)C(=O)O)C1 (stereo partly drawn) [Compound 195, 2-methyl-2-[1-[rac-(2R)-2-[[4-(2,6-dichloro-4-fluoro-phenyl)-7-quinolyl]oxy]propanoyl]-3-piperidyl]propanoic acid] |
| 0.1 to 1 µM | 0.01 to 0.05 µM | C[C@@H](Oc1ccc2c(-c3ccc(F)cc3Cl)ccnc2c1)C(=O)N1CCC[C@@H](S(N)(=O)=O)C1 [Compound 117, (3R)-1-[(2R)-2-[[4-(2-chloro-4-fluoro-phenyl)-7-quinolyl]oxy]propanoyl]piperidine-3-sulfonamide] |
| 0.1 to 1 µM | < 0.01 µM | Cc1cc(F)ccc1-c1cc(Cl)nc2cc(O[C@H](C)C(=O)N3CCC[C@H](C(=O)O)C3)ccc12 [Compound 35, (3S)-1-[(2R)-2-[[2-chloro-4-(4-fluoro-2-methyl-phenyl)-7-quinolyl]oxy]propanoyl]piperidine-3-carboxylic acid] |
| 0.1 to 1 µM | 0.01 to 0.05 µM | Cc1ccccc1-c1cc(Cl)nc2cc(O[C@H](C)C(=O)N3CCC[C@H](C(N)=O)C3)ccc12 [Compound 52, (3S)-1-[(2R)-2-[[2-chloro-4-(o-tolyl)-7-quinolyl]oxy]propanoyl]piperidine-3-carboxamide] |
| 1 to 10 µM | 0.05 to 0.5 µM | C[C@@H](Oc1ccc2c(-c3ccccc3Cl)cc(Cl)nc2c1)C(=O)N1CCNCC1 [Compound 104, (2R)-2-[[2-chloro-4-(2-chlorophenyl)-7-quinolyl]oxy]-1-piperazin-1-yl-propan-1-one] |
| < 0.02 µM | < 0.01 µM | C[C@@H](Oc1ccc2c(-c3ccccc3Cl)cc(F)nc2c1)C(=O)N1CCC[C@H](C(=O)O)C1 [Compound 12, (3S)-1-[(2R)-2-[[4-(2-chlorophenyl)-2-fluoro-7-quinolyl]oxy]propanoyl]piperidine-3-carboxylic acid] |
| 0.1 to 1 µM | 0.05 to 0.5 µM | Cc1cc(F)ccc1-c1cc(Cl)nc2cc(O[C@H](C)C(=O)N3CCC[C@H](CC(=O)O)C3)ccc12 [Compound 57, 2-[(3R)-1-[(2R)-2-[[2-chloro-4-(4-fluoro-2-methyl-phenyl)-7-quinolyl]oxy]propanoyl]-3-piperidyl]acetic acid] |
| 0.1 to 1 µM | 0.01 to 0.05 µM | CC(C)N(C)C(=O)[C@@H](C)Oc1ccc2c(-c3ccc(F)cc3Cl)ccnc2c1 [Compound 32, (2R)-2-[[4-(2-chloro-4-fluoro-phenyl)-7-quinolyl]oxy]-N-isopropyl-N-methyl-propanamide] |
| 0.1 to 1 µM | 0.05 to 0.5 µM | C[C@@H](Oc1ccc2c(-c3ccc(F)cc3Cl)ccnc2c1)C(=O)N1CCNCC1 [Compound 55, (R)-2-((4-(2-chloro-4-fluorophenyl)quinolin-7 yl)oxy)-1-(piperazin-1 yl)propan-1-one 2×TFA salt] |
| < 0.02 µM | < 0.01 µM | Cc1cc(F)cc(C)c1-c1ccnc2cc(O[C@H](C)C(=O)N3C(C)CCCC3C)ccc12 (mixture of isomers) [Compound 191, rac-(2R)-1-(2,6-dimethyl-1-piperidyl)-2-[[4-(4-fluoro-2,6-dimethyl-phenyl)-7-quinolyl]oxy]propan-1-one] |
